Assays:
Dihydrofolate reductase [1] = target: T1, Dihydrofolate reductase (Escherichia coli, UniProt P0ABQ4)
T1 sequence (P0ABQ4 whole entry): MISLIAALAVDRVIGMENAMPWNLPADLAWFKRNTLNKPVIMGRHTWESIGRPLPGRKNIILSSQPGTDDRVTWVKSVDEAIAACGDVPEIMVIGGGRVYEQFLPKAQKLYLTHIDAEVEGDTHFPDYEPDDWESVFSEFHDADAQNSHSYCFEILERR
Description: Inhibition of Escherichia coli DHFR

CCRF-CEM [2] = assay: Protection of drug-induced growth inhibition by 10 uM leucovorin in human CCRF-CEM cells assessed as growth at 20 nM relative to control; format: functional; parameters: scale not given: the % may be the effect or the level left
CCRF-CEM [3] = assay: Cell growth in human CCRF-CEM cells at 20 nM relative to control; format: functional
CCRF-CEM [4] = assay: Cell growth in human CCRF-CEM cells at 40 nM relative to control; format: functional
CCRF-CEM [5] = assay: Protection of drug-induced growth inhibition by 1 uM leucovorin in human CCRF-CEM cells assessed as growth at 20 nM relative to control; format: functional; parameters: scale not given: the % may be the effect or the level left
CCRF-CEM [6] = assay: Protection of drug-induced growth inhibition by 0.1 uM leucovorin in human CCRF-CEM cells assessed as growth at 20 nM relative to control; format: functional; parameters: scale not given: the % may be the effect or the level left
[7] = target: T2, Bifunctional dihydrofolate reductase-thymidylate synthase (Toxoplasma gondii, UniProt Q07422); assay: Inhibition of Toxoplasma gondii thymidylate synthase
T2 sequence (Q07422 whole entry): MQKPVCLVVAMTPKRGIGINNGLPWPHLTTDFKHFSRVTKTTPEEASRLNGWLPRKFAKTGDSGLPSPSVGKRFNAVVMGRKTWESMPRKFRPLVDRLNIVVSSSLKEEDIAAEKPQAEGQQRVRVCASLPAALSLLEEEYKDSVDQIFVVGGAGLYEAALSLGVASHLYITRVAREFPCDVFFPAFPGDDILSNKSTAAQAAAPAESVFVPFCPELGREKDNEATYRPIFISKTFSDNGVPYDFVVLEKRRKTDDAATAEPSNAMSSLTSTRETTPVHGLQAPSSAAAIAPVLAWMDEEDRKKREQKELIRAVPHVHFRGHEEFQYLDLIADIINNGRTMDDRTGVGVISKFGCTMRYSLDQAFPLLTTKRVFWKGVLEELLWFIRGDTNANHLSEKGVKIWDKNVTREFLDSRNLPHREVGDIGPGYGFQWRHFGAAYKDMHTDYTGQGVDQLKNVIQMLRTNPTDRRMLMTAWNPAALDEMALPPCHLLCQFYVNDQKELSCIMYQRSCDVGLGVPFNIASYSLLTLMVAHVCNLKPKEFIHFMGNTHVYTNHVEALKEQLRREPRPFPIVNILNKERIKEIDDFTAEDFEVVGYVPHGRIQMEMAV

CCRF-CEM [8] = assay: cells; conditions: Homo sapiens, 120 h
[9] = target: T2, Bifunctional dihydrofolate reductase-thymidylate synthase; assay: Inhibition of Toxoplasma gondii DHFR
Thymidylate synthase [10] = target: Thymidylate synthase (Homo sapiens, UniProt P04818)
Sequence of Thymidylate synthase (Homo sapiens, UniProt P04818) (P04818 whole entry): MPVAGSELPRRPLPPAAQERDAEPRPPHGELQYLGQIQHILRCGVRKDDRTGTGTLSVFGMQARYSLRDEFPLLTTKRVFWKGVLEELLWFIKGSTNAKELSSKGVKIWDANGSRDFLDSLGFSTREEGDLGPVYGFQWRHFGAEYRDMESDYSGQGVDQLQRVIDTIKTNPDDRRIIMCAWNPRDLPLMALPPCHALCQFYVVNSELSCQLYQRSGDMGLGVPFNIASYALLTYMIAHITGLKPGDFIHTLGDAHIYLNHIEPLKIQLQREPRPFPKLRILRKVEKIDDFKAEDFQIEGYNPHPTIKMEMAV
Description: Inhibition of human thymidylate synthase

CCRF-CEM [11] = assay: cells; conditions: Homo sapiens
Description: Growth inhibition of human CCRF-CEM cells

CCRF-CEM [12] = assay: cells; conditions: Homo sapiens, 120 h; remark: listed apart in the source
CCRF-CEM [13] = assay: cells; conditions: Homo sapiens, 120 h; remark: listed apart in the source
Thymidylate synthase [14] = target: Thymidylate synthase (Escherichia coli, UniProt C3SWJ7); assay: Inhibition of Escherichia coli thymidylate synthase
Sequence of Thymidylate synthase (Escherichia coli, UniProt C3SWJ7) (C3SWJ7 whole entry): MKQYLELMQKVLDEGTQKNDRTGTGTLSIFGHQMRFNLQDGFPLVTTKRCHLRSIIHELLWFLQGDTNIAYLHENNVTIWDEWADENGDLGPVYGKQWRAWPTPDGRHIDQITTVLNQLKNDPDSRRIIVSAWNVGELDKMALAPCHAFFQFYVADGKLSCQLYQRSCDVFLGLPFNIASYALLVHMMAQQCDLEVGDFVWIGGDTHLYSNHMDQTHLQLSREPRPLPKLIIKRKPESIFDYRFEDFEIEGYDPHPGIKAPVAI

Dihydrofolate reductase [15] = target: Dihydrofolate reductase (Homo sapiens, UniProt P00374)
Sequence of Dihydrofolate reductase (Homo sapiens, UniProt P00374) (P00374 whole entry): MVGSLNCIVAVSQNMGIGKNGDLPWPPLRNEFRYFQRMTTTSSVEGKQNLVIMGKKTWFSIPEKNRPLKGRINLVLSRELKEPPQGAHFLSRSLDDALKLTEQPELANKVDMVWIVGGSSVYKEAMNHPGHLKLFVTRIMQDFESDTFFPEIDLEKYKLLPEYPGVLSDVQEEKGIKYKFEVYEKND

CCRF-CEM [16] = assay: Protection against 40 nM methotrexate-induced growth inhibition in human CCRF-CEM cells assessed as growth at 5 uM relative to control; format: functional; parameters: scale not given: the % may be the effect or the level left
CCRF-CEM [17] = assay: Protection against 4000 nM N-{4-[(2,4-diamino-5-methyl-4, 7-dihydro-3H-pyrrolo[2,3-d]pyr imidin-6-yl)thio]benzoyl}-L-gl utamic acid-induced growth inhibition in human CCRF-CEM cells assessed as growth at 5 uM relative to control; format: functional; parameters: scale not given: the % may be the effect or the level left

## Cc1nc2ccc(CN(C)c3ccc(C(=O)N[C@@H](CCC(=O)O)C(=O)O)s3)cc2c(=O)[nH]1 [RALTITREXED]
Dihydrofolate reductase [1]
  IC50: 23 µM

## CN(Cc1cnc2nc(N)nc(N)c2n1)c1ccc(C(=O)N[C@@H](CCC(=O)O)C(=O)O)cc1 [METHOTREXATE]
CCRF-CEM [2]
  Activity: 95%
CCRF-CEM [3]
  Activity: 5%
CCRF-CEM [4]
  Activity: 12%
CCRF-CEM [5]
  Activity: 96%
CCRF-CEM [6]
  Activity: 90%

## Cc1c(Sc2ccc(C(=O)N[C@@H](CCC(=O)O)C(=O)O)cc2)[nH]c2nc(N)[nH]c(=O)c12
[7]
  IC50: 3.6 µM
CCRF-CEM [8]
  EC50: > 20 µM
[9]
  IC50: 2.2 µM
Thymidylate synthase [10]
  IC50: 100 µM
CCRF-CEM [11]
  EC50: > 20 µM
CCRF-CEM [12]
  EC50: > 20 µM
CCRF-CEM [13]
  EC50: > 20 µM
Thymidylate synthase [14]
  IC50: > 180 µM
Dihydrofolate reductase [1]
  IC50: > 240 µM
Dihydrofolate reductase [15]
  IC50: > 240 µM

## Cc1cn([C@H]2C[C@H](O)[C@@H](CO)O2)c(=O)[nH]c1=O [DOXRIBTIMINE]
CCRF-CEM [16]
  Activity: 18%
CCRF-CEM [17]
  Activity: 20%

Source: ChEMBL document CHEMBL1139472, “Synthesis of N-{4-[(2,4-diamino-5-methyl-4,7-dihydro-3H-pyrrolo[2,3-d]pyrimidin-6-yl)thio]benzoyl}-L-glutamic acid and N-{4-[(2-amino-4-oxo-5-methyl-4,7-dihydro-3H-pyrrolo[2,3-d]pyrimidin-6-yl)thio]benzoyl}-L-glutamic acid as dual inhibitors of dihydrofolate reductase and thymidylate synthase and …” (J Med Chem, 2005)
